Test results from ChEMBL document CHEMBL4831514, “Novel betulin dicarboxylic acid ester derivatives as potent antiviral agents: Design, synthesis, biological evaluation, structure-activity relationship and in-silico study” (Eur J Med Chem, 2021).

Key:
Influenza A virus [1] = test: (§1) Antiviral activity against Influenza A virus H1N1 (A/PR/8/34) infected in MDCK cells assessed as reduction in virus titer treated 1 hr post viral infection followed by replacement with fresh medium with compounds and measured after 72 hrs by MTT assay; assay type: functional, organism-based; settings: H1N1 A/PR/8/34, MDCK
[2] = as §1, with “Selectivity index, ratio of CC50 for cytotoxicity against dog MDCK cells to EC50 for antiviral” for “Antiviral”; assay type: toxicity, cell-based; settings: read-out: Selectivity Index
Influenza A virus [3] = test: as §1, with “Potency index, ratio of oseltamivir EC50 to test compound EC50 for antiviral” for “Antiviral”; assay type: functional

SMILES | EC50 (Influenza A virus [1]) | selectivity ratio at 72 h [2] | Ratio EC50 (Influenza A virus [3])
C#CC1(NC(=O)/C(C)=C/C(=O)OC[C@]23CC[C@@H](C(=C)C)[C@@H]2[C@H]2CC[C@@H]4[C@@]5(C)CC[C@H](O)C(C)(C)[C@@H]5CC[C@@]4(C)[C@]2(C)CC3)CCCCC1 | 27.2 µM | 2 | 3
C=C(C)[C@@H]1CC[C@]2(COC(=O)CSCC(=O)O)CC[C@]3(C)[C@H](CC[C@@H]4[C@@]5(C)CC[C@H](O)C(C)(C)[C@@H]5CC[C@]43C)[C@@H]12 | 21.1 µM | 2 | 3
CCOC(=O)C1=C[C@@H](OC(CC)CC)[C@H](NC(C)=O)[C@@H](N)C1 [OSELTAMIVIR] | 80.1 µM | 98.2 | –
